Laboratory results taken from patent US9365522B2, “Pyrazole amide derivative” (AMGEN INC., priority 2015, dated 2016).

Biological target: T1, ligand binding domain of human ROR gamma (Homo sapiens, UniProt P51449)
T1 construct: NM_001001523; expressed in transfected cells; host or cells: HEK293T
T1 sequence (P51449 247-497 isoform P51449-2): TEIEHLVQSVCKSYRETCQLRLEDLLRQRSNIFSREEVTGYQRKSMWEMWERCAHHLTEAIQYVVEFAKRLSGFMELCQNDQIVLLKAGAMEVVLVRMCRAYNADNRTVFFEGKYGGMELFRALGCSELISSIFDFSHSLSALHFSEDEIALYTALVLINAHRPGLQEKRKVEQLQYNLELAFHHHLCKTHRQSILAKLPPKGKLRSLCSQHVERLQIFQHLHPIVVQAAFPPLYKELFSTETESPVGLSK
Test: ROR gamma reporter gene assay (GAL4-RORγ LBD luciferase, Dual-Glo)
Assay type: cell-based
Conditions: HEK293T cells transfected with pM-ROR gamma, 8 concentrations 3.5 nM to 10.5 μM, 24 h incubation; read-out: result (pIC50, inhibition of RORγ transcriptional activity) (converted)
Outline: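 HEK293T cells were co-transfected with GAL4 DBD fused to human RORγ LBD (aa 247-497), a 5×UAS firefly luciferase reporter and CMV-driven renilla luciferase, in medium with 10% charcoal-stripped FBS.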

IC50 | Compound
> 1e+07 pM | O=C(CN(Cc1cc(F)cc(F)c1)C(=O)c1cnn([C@H]2CC[C@H](C(=O)O)CC2)c1C(F)(F)F)c1ccc(O)cc1 [Example 69, trans-4-(4-((3,5-difluorobenzyl)(2-(4-hydroxyphenyl)-2-oxoethyl)carbamoyl)-5-(trifluoromethyl)-1H-pyrazol-1-yl)cyclohexanecarboxylic acid]
> 1e+07 pM | O=C(CN(Cc1cc(F)cc(F)c1)C(=O)c1cnn([C@H]2CC[C@H](C(=O)O)CC2)c1C(F)(F)F)c1c(Cl)cc(O)cc1Cl [Example 70, trans-4-(4-((2-(2,6-dichloro-4-hydroxyphenyl)-2-oxoethyl)(3,5-difluorobenzyl)carbarnoyl)-5-(trifluoromethyl)-1H-pyrazol-1-yl)cyclohexanecarboxylic acid]
2.09e+06 pM | O=C(CN(CC1CCOCC1)C(=O)c1cnn([C@H]2CC[C@H](C(=O)O)CC2)c1C(F)(F)F)c1c(Cl)cncc1Cl [Example 71, trans-4-(4-((2-(3,5-dichloropyridin-4-yl)-2-oxoethyl)((tetrahydro-2H-pyran-4-yl)methyl)carbamoyl)-5-(trifluoromethyl)-1H-pyrazol-1-yl)cyclohexanecarboxylic acid]
1.32e+06 pM | O=C(CN(CC1CC1)C(=O)c1cnn([C@H]2CC[C@H](C(=O)O)CC2)c1C(F)(F)F)c1c(Cl)cncc1Cl [Example 72, trans-4-(4-((cyclopropylmethyl)(2-(3,5-dichloropyridin-4-yl)-2-oxoethyl)carbamoyl)-5-(trifluoromethyl)-1H-pyrazol-1-yl)cyclohexanecarboxylic acid]
646000 pM | CC(C)(F)CN(CC(=O)c1c(Cl)cncc1Cl)C(=O)c1cnn([C@H]2CC[C@H](C(=O)O)CC2)c1C(F)(F)F [Example 73, trans-4-(4-((2-(3,5-dichloropyridin-4-yl)-2-oxoethyl)(2-fluoro-2-methylpropyl)carbamoyl)-5-(trifluoromethyl)-1H-pyrazol-1-yl)cyclohexanecarboxylic acid]
263000 pM | COC(C)(C)CN(CC(=O)c1c(Cl)cncc1Cl)C(=O)c1cnn([C@H]2CC[C@H](C(=O)O)CC2)c1C(F)(F)F [Example 74, trans-4-(4-((2-(3,5-dichloropyridin-4-yl)-2-oxoethyl)(2-methoxy-2-methylpropyl)carbamoyl)-5-(trifluoromethyl)-1H-pyrazol-1-yl)cyclohexanecarboxylic acid]
316000 pM | O=C(CN(CC(F)(F)F)C(=O)c1cnn([C@H]2CC[C@H](C(=O)O)CC2)c1C(F)(F)F)c1c(Cl)cncc1Cl [Example 75, trans-4-(4-((2-(3,5-dichloropyridin-4-yl)-2-oxoethyl)(2,2,2-trifluoroethyl)carbamoyl)-5-(trifluoromethyl)-1H-pyrazol-1-yl)cyclohexanecarboxylic acid]
1.7e+06 pM | O=C(CN(Cc1ccncc1)C(=O)c1cnn([C@H]2CC[C@H](C(=O)O)CC2)c1C(F)(F)F)c1c(Cl)cncc1Cl [Example 76, trans-4-(4-((2-(3,5-dichloropyridin-4-yl)-2-oxoethyl)(pyridin-4-ylmethyl)carbamoyl)-5-(trifluoromethyl)-1H-pyrazol-1-yl)cyclohexanecarboxylic acid]
33900 pM | C[C@]1(C(=O)O)CC[C@H](n2ncc(C(=O)N(CC(=O)c3c(Cl)cncc3Cl)Cc3ccc(F)cc3)c2C(F)(F)F)CC1 [Example 77, trans-4-(4-((2-(3,5-dichloropyridin-4-yl)-2-oxoethyl)(4-fluorobenzyl)carbamoyl)-5-(trifluoromethyl)-1H-pyrazol-1-yl)-1-methylcylohexanecarboxylic acid]
10000 pM | C[C@]1(C(=O)O)CC[C@H](n2ncc(C(=O)N(CC(=O)c3c(Cl)cncc3Cl)Cc3cc(F)cc(F)c3)c2C(F)(F)F)CC1 [Example 78, trans-4-(4-((2-(3,5-dichloropyridin-4-yl)-2-oxoethyl)(3,5-difluorobenzyl)carbamoyl)-5-(trifluoromethyl)-1H-pyrazol-1-yl)-1-methylcyclohexanecarboxylic acid]
209000 pM | C[C@]1(C(=O)O)CC[C@@H](n2ncc(C(=O)N(CC(=O)c3c(Cl)cncc3Cl)Cc3ccc(F)cc3)c2C(F)(F)F)CC1 [Example 79, trans-4-(4-((2-(3,5-dichloropyridin-4-yl)-2-oxoethyl)(4-fluorobenzyl)carbamoyl)-5-(trifluoromethyl)-1H-pyrazol-1-yl)-1-methylcyclohexanecarboxylic acid]
661000 pM | O=C(CN(Cc1ccc(F)cc1)C(=O)c1cnn([C@H]2CC[C@@](F)(C(=O)O)CC2)c1C(F)(F)F)c1c(Cl)cncc1Cl [Example 80, trans-4-(4-((2-(3,5-dichloropyridin-4-yl)-2-oxoethyl)(4-fluorobenzyl)carbamoyl)-5-(trifluoromethyl)-1H-pyrazol-1-yl)-1-fluorocyclohexanecarboxylic acid]
93300 pM | O=C(CN(Cc1ccc(F)cc1)C(=O)c1cnn([C@H]2CC[C@](F)(C(=O)O)CC2)c1C(F)(F)F)c1c(Cl)cncc1Cl [Example 81, cis-4-(4-((2-(3,5-dichloropyridin-4-yl)-2-oxoethyl)(4-fluorobenzyl)carbamoyl)-5-(trifluoromethyl)-1H-pyrazol-1-yl)-1-fluorocyclohexanecarboxylic acid]
81300 pM | O=C(CN(Cc1ccc(F)cc1)C(=O)c1cnn([C@H]2C[C@H](C(=O)O)C2)c1C(F)(F)F)c1c(Cl)cncc1Cl [Example 82, trans-3-(4-((2-(3,5-dichloropyridin-4-yl)-2-oxoethyl)(4-fluorobenzyl)carbarnoyl)-5-(trifluoromethyl)-1H-pyrazol-1-yl)cyclobutanecarboxylic acid]
107000 pM | CC(F)(F)c1c(C(=O)N(CC(=O)c2c(Cl)cncc2Cl)Cc2ccc(F)cc2)cnn1[C@H]1CC[C@H](C(=O)O)CC1 [Example 84, trans-4-(4-((2-(3,5-dichloropyridin-4-yl)-2-oxoethyl)(4-fluorobenzyl)carbamoyl)-5-(1,1-difluoroethyl)-1H-pyrazol-1-yl)cyclohexanecarboxylic acid]
1.48e+06 pM | O=C(CN(Cc1cc(F)cc(F)c1)C(=O)c1cnn([C@H]2CC[C@H](O)CC2)c1C(F)(F)F)c1c(Cl)cncc1Cl [Example 85, N-(2-(3,5-dichloropyridin-4-yl)-2-oxoethyl)-N-(3,5-difluorobenzyl)-1-(trans-4-hydroxycyclohexyl)-5-(trifluoromethyl)-1H-pyrazole-4-carboxamide]
162000 pM | C[S+](=O)([O-])[C@H]1CC[C@@H](n2ncc(C(=O)N(CC(=O)c3c(Cl)cncc3Cl)Cc3ccc(F)cc3)c2C(F)(F)F)CC1 [Example 86, N-(2-(3,5-dichloropyridin-4-yl)-2-oxoethyl)-N-(4-fluorobenzyl)-1-(cis-4-(methylsulfonyl)cyclohexyl)-5-(trifluoromethyl)-1H-pyrazole-4-carboxamide]
141000 pM | C[S+](=O)([O-])[C@H]1CC[C@H](n2ncc(C(=O)N(CC(=O)c3c(Cl)cncc3Cl)Cc3ccc(F)cc3)c2C(F)(F)F)CC1 [Example 87, N-(2-(3,5-dichloropyridin-4-yl)-2-oxoethyl)-N-(4-fluorobenzyl)-1-(trans-4-(methylsulfonyl)cyclohexyl)-5-(trifluoromethyl)-1H-pyrazole-4-carboxamide]
87100 pM | NC(=O)[C@H]1CC[C@H](n2ncc(C(=O)N(CC(=O)c3c(Cl)cncc3Cl)Cc3ccc(F)cc3)c2C(F)(F)F)CC1 [Example 88, l-(trans-4-carbamoylcyclohexyl)-N-(2-(3,5-dichloropyridin-4-yl)-2-oxoethyl)-N-(4-fluorobenzyl)-5-(trifluoromethyl)-1H-pyrazole-4-carboxamide]
1.38e+06 pM | O=C(CN(Cc1ccc(F)cc1)C(=O)c1cnn([C@H]2CC[C@H](C(=O)NCCO)CC2)c1C(F)(F)F)c1c(Cl)cncc1Cl [Example 89, N-(2-(3,5-dichloropyridin-4-yl)-2-oxoethyl)-N-(4-fluorobenzyl)-1-(trans-4-((2-hydroxyethyl)carbamoyl)cyclohexyl)-5-(trifluoromethyl)-1H-pyrazole-4-carboxamide]
501000 pM | O=C(c1cnn([C@H]2CC[C@H](C(=O)O)CC2)c1C(F)(F)F)N(Cc1ccc(F)cc1)CC(O)c1c(Cl)cncc1Cl (stereo partly drawn) [Example 90, trans-4-(4-((2-(3,5-dichloropyridin-4-yl)-2-hydroxyethyl)(4-fluorobenzyl)carbamoyl)-5-(trifluoromethyl)-1H-pyrazol-1-yl)cyclohexanecarboxylic acid]
4370 pM | O=C(c1cnn([C@H]2CC[C@H](C(=O)O)CC2)c1C(F)(F)F)N(Cc1ccc(F)cc1)CC(F)c1c(Cl)cccc1Cl (stereo partly drawn) [Example 91, trans-4-(4-((2-(2,6-dichlorophenyl)-2-fluoroethyl)(4-fluorobenzyl)carbamoyl) (trifluoromethyl)-1H-pyrazol-1-yl)cyclohexanecarboxylic acid]
155000 pM | O=C(CN(Cc1ccc(F)cc1)C(=O)c1cnn([C@H]2CC[C@H](C(=O)O)C2)c1C(F)(F)F)c1c(Cl)cncc1Cl [Example 92, (1S,3S)-3-(4-((2-(3,5-dichloropyridin-4-yl)-2-oxoethyl)-((4-fluorophenyl)methyl)carbamoyl)-5-(trifluoromethyl)pyrazol-1-yl)cyclopentane-1-carboxylic acid]
